The test system of experiment [1] is panel of 46 cancer cell lines. Kind of experiment: Low folate in vitro proliferation assay, cancer cell line panel (Alamar Blue). The note with it: media conditions with folate levels similar to human plasma; summary of Table 18.
Description: Supplement 500 mL Gibco folate free RPMI media (Gibco #27016-021) with 1 M Hepes (5 mL), 100 mM Na pyruvate (5 mL) and 0.5 g/mL glucose (2.5 mL) to match high folate ATCC RPMI media (ATCC #30-2001). To make complete media, both regular and folate free RPMI medias are supplemented with 10% FBS. The addition of FBS to folate free media adds low levels of folate and is now considered to be low folate media.
Transfer cells growing in high folate RPMI media (ATCC #30-2001)+10% FBS (Hyclone #SH30070.03) to low folate RPMI media and folate starve for 7 days. Wash cells grown in high folate media with PBS, trypsinize, and resuspend in low folate media. Grow cells in low folate media for 7 days making sure to seed tissue culture flasks at a density that will not exceed 80% confluence after 7 days. Wash cells in PBS, trypsinize, and resuspend in low folate media and count cells. Seed 96 well poly D lysine plate (Corning #354640) at 3000 cells/well in 100 μl low folate media. Allow cells to attach overnight. Prepare 10 mM DMSO stocks of compounds to be tested in proliferation assay. Determine concentrations to be tested and dilute compounds to 2× final concentration in low folate media. Calculate % DMSO of this solution and use this value as diluent. […] Read plates on the Envision plate reader (Perkin Elmer), or other fluorescent plate reader, with excitation at 570 nm and emission at 585 nm. […]
The next experiment addresses AICARFT (Homo sapiens, UniProt P31939). Kind of experiment: AICARFT in vivo target inhibition (IVTI) assay, tumor xenografts (ZMP). Also on record: from tissue; host or cells: HCT-116 and NCI-H460 tumour xenografts in female athymic nude mice; species or system mouse.
Experiment [2] relates to human colorectal adenocarcinoma cell line HCT-116 mouse xenograft. Kind of experiment: Antitumor efficacy in HCT-116 mouse xenograft tumor model. Type of experiment: in vivo. The note with it: for % T/C: HCT-116 xenograft, Day 23, Delta T/C, * = P<0.05. The protocol:
(§1) In vivo studies are performed using female athymic nude mice (Harlan) with a bodyweight of 23-28 g at first measurement. Upon receipt and throughout the study, the animals are housed 5 animals per cage in appropriately sized solid-bottom cages with contact bedding. The animal room is maintained on a 12-hour light/dark cycle. Animals are acclimated for 14 days prior to implantation of the NCI-H460 or HCT-116 cells on low folate diet (Teklad 130451) ad libitum and autoclaved tap water is provided ad libitum. The HCT-116 and NCI-H460 cell line are obtained from American Type Culture Collection (ATCC) and is cultured following ATCC instructions. Cells used for implantation are harvested during log phase growth and suspended in serum-free media. The suspended cells are then diluted 1:1 with BD Matrigel Matrix (ref 354234). Cells are injected in the right flank with 5.0E+06 cells (0.2 mL cell/Matrigel suspension). Tumors are monitored beginning day 8 post implant. Animals are redistributed into groups with 5-6 animals per group utilizing proprietary randomization software when average tumor volume reaches 200 mm^3. Groups 1-12 are maintained on a low folate diet (Teklad 130451) and folic acid (Sigma F8798 Lot #SLBH0909V) administration at doses listed in the Table 19 began 28 hours prior to dose initiation and 4 hours prior to each dose. Folic acid is formulated weekly in PBS and dosed via oral gavage at 0.2 mL. Groups 13-16 are placed on standard chow (Teklad 2920X) at randomization. The compound is formulated weekly in 20% HPBCD in Phosphate buffer pH 8 with one molar equivalent NaOH added. The formulated compound is administered at the doses and schedules indicated in Table 19 by oral gavage (0.2 mL). The vehicle is also given QD as the control arm of the study. Tumor volume and body weight are measured 2× a week. Tumor volume is determined by caliper measurements (mm) and using the formula for an ellipsoid sphere: tumor volume (mm^3)=length×width^2/2, where length and width refer to the larger and smaller perpendicular dimensions collected at each measurement. The animal behavior and animal health are monitored daily during dosing period.
The statistical analysis of the tumor volume data begins with a data transformation to a log scale to equalize variance across time and treatment groups. The log volume data are analyzed with a two-way repeated measures analysis of variance by time and treatment using the MIXED procedures in SAS software (Version 9.3). The correlation model for the repeated measures is Spatial Power. Treated groups are compared to the control group at each time point. The MIXED procedure is also used separately for each treatment group to calculate adjusted means and standard errors at each time point. Both analyses account for the autocorrelation within each animal and the loss of data that occurs when animals with large tumors are removed from the study early. The adjusted means and standard errors are plotted for each treatment group vs time. The analysis comparing the treated groups to the control groups at each time point uses the log 10 tumor volumes and produces the p-values. For statistical significance of p-values shown, “*”=P<0.05.
Delta T/C, % calculation is used. Equations: T=Final tumor volume in treated group; T0=Baseline tumor volume in treated group (assumed to be same as C0); C=Final tumor volume in control group; C0=Baseline tumor volume in control group (assumed to be same as T0); Delta T/C, %=100*(T−T0)/(C−C0)

The test system of experiment [3] is human lung carcinoma NCI-H460 mouse xenograft. Kind of experiment: Antitumor efficacy in NCI-H460 mouse xenograft tumor model. The format is in vivo. The note with it: for % T/C: NCI-H460 xenograft, no folic acid, Day 20, Delta T/C, * = P<0.05. The protocol: as §1, with “Folic acid is formulated weekly in PBS and dosed via oral gavage at 0.2 mL. Groups 13-16 are placed on standard chow (Teklad 2920X) at randomization. The compound is formulated weekly in 20% HPBCD in Phosphate buffer pH 8 with one molar equivalent NaOH added. The formulated compound is administered at the doses and schedules indicated in Table 19 by oral gavage (0.2 mL). The vehicle is also given QD as the control arm of the study.” left out
The statistical analysis of the tumor volume data begins with a data transformation to a log scale to equalize variance across time and treatment groups. The log volume data are analyzed with a two-way repeated measures analysis of variance by time and treatment using the MIXED procedures in SAS software (Version 9.3). […]

The subject of experiment [4] is colorectal carcinoma HCT-116. Kind of experiment: Low folate in vitro proliferation assay, HCT-116. The format is cell-based. The note with it: Homo sapiens, 168 h; HCT-116, low folate media, 7 days. From the text:
Allow cells to attach overnight. […] Final concentration of compounds will be 1×. […] Dose cells with compounds of interest for 7 days. […] Determine % inhibition for each sample (see Table 18).

The structures appear in SMILES notation.

Sequence of AICARFT (P31939 whole entry): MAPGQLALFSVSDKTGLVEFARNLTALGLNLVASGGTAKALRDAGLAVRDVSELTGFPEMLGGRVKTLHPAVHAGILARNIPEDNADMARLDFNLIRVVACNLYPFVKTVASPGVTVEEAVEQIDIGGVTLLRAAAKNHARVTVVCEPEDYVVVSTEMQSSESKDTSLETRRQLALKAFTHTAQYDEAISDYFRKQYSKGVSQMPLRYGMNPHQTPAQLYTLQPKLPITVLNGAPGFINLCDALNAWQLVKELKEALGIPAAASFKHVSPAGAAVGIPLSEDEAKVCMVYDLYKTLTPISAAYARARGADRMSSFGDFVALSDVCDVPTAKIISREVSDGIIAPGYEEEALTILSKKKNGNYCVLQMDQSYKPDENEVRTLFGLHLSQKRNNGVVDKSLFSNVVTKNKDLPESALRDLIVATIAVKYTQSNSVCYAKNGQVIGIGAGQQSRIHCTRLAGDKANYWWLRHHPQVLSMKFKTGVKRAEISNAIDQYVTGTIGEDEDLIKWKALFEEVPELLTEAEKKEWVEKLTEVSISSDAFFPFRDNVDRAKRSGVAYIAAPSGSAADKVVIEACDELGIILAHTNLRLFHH
Description for AICARFT: The in vivo effects of AICARFT inhibition on the concentrations of pathway-related analytes are determined by liquid chromatography-mass spectrometry (LC-MS) analysis of tumor xenografts. Tumor xenograft samples on dry ice are weighed on an analytical balance, transferred to 2 mL Eppendorf Safe-Lock Tube™, and placed on dry ice. An internal standard solution containing 13C5-ZMP (1000 ng/mL), 13C5-AICAr (500 ng/mL), ascorbic acid (0.1%), and formic acid (0.1%) in MeOH/DCM (80:20) is prepared and stored at 20° C. For every mg of tissue in the sample tube, 10 L of internal standard solution is added. Standard curves containing ZMP, dUMP, AICAr at concentrations of 7.6-50,000 ng/mL are prepared separately in the internal standard solution.
One 5 mm steel bead (Qiagen) is added to each sample tube and the tubes are placed on wet ice for 15 minutes. Samples are homogenized on a Qiagen TissueLyser II for 5 minutes at 15 Hz, and then centrifuged on an Eppendorf 5430R microcentrifuge for 10 minutes at 13,000 rpm and 4° C. Aliquots of each supernatant (200 μL) are removed and placed into a deep 96-well plate. Aliquots (200 μL) of each standard curve solution are also placed in a deep 96-well plate. A Beckman Biomek FX liquid handler added DCM (600 μL) and 0.1% ascorbic acid solution (200 μL) to each well. The plate is sealed, vortexed for 5 minutes, and centrifuged for 5 minutes at 4,000 rpm and 4° C. on an Eppendorf 5810R centrifuge. Aliquots (75 μL) of the top layer are transferred to a clean 96-well plate, and an additional 75 μL of 40 mM ammonium acetate, pH 4 is added to each well. The plates are sealed prior to analysis. The LC-MS method utilized a Shimadzu Prominence 20A HPLC system connected to an AB Sciex 5500™ or an AB Sciex 6500™ triple quadrupole mass spectrometer running Analyst® software.

With `O=c1[nH]ccc2cc(F)c(NS(=O)(=O)c3ccc(N4CC[C@@H](O)C4)s3)cc12` [Example 1, N-(6-Fluoro-1-oxo-1,2-dihydroisoquinolin-7-yl)-5-[(3R)-3-hydroxypyrrolidin-1-yl]thiophene-2-sulfonamide], in experiment [1], the “inhibition of proliferation of cancer cells (in words)” value is listed as “inhibits proliferation of cancer cells”. Besides, the “Mean tumor ZMP” value is 20 µM on AICARFT (HCT-116 xenograft, Group 6, low folate diet, folic acid 0.75 mg/kg (QD × 15, orally), 10 mg/kg QD × 14, orally, Day 23); 35 µM on AICARFT (HCT-116 xenograft, Group 7, low folate diet, folic acid 0.75 mg/kg (QD × 15, orally), 30 mg/kg QD × 14, orally, Day 23); 7.0 µM on AICARFT (HCT-116 xenograft, Group 14, standard chow, no folic acid, 10 mg/kg QD × 14, orally, Day 23); 26 µM on AICARFT (HCT-116 xenograft, Group 15, standard chow, no folic acid, 30 mg/kg QD × 14, orally, Day 23); 3.7 µM on AICARFT (NCI-H460 xenograft, Group 14, standard chow, no folic acid, 10 mg/kg QD × 13, orally, Day 20); 66 µM on AICARFT (NCI-H460 xenograft, Group 15, standard chow, no folic acid, 30 mg/kg QD × 13, orally, Day 20). Also, the “in vivo anticancer activity (in words)” value is on record as “demonstrates in vivo anticancer activity” in experiment [2] (HCT-116 xenograft tumors, QD continuously for 2 weeks) and “demonstrates in vivo anticancer activity” in experiment [3] (NCI-H460 xenograft tumors, QD continuously for 2 weeks). For the same compound, the “% T/C” value in experiment [2] (Group 6, low folate diet, folic acid 0.75 mg/kg (QD × 15, orally), 10 mg/kg QD × 14, orally) was 65* %; in experiment [2] (Group 7, low folate diet, folic acid 0.75 mg/kg (QD × 15, orally), 30 mg/kg QD × 14, orally), 57* %; in experiment [2] (Group 14, standard chow, no folic acid, 10 mg/kg QD × 14, orally), 112%; in experiment [2] (Group 15, standard chow, no folic acid, 30 mg/kg QD × 14, orally), 49%; in experiment [3] (Group 14, standard chow, 10 mg/kg QD × 13, orally), 113%; in experiment [3] (Group 15, standard chow, 30 mg/kg QD × 13, orally) it was 42* %. Besides, half-maximal inhibition in experiment [4] (IC50) was put at 3 nM.

The values are drawn from patent US9776992B2, “1-oxo-1,2-dihydroisoquinolin-7-yl-(5-substituted-thiophen-2-yl)-sulfonamide compounds, formulations containing those compounds, and their use as AICARFT inhibitors in the treatment of cancers” (Eli Lilly and Company, priority 2014, dated 2017).
